In patent publication EP1764363A2, “Substituted acetophenonederivatives” (Riemser Arzneimittel AG, priority 2005, dated 2007):
≈ marks a conversion by molar mass, not a printed value.

What was measured:
[1] = Radical scavenger screening with DPPH radicals (DPPH test); conditions: Konzentrationen 500 und 1000µg/ml
Description: […] die 6 Verbindungen HMF2, HMF-3, CH-1, L5, Q20 und […]. Die […] durch den DPPH-Test ermittelt, wobei sich die UV/VIS-Absorption des freien stabilen […] (Diphenyl-β-picrylhydrazin) in Abhängigkeit vom Zustand von […]. Die Auswertung erfolgt qualitativ (dünnschichtchromatographisch) und quantitativ (photometrisch) mit Ascorbinsäure […] Molyneux P. (2004) The use of the stabel free radical diphenylpicrylhydrazyl (DPPH) for estimating antioxidant activity. Songklanakarin J Sci Technol. 26(2): 211-219).

[2] = tested on: Bacillus subitilis; assay: Minimal inhibitory concentration (MHK), microtitre plate, TTC staining; type: cell-based; conditions: 48h, 36°C
[3] = tested on: Micrococcus luteus; assay: as above; type: cell-based; conditions: 48h, 36°C
[4] = tested on: Rhodococcus equi; assay: as above; type: cell-based; conditions: 48h, 36°C
[5] = tested on: S. falcium; assay: as above; type: cell-based; conditions: 48h, 36°C
[6] = tested on: Salmonella sp; assay: as above; type: cell-based; conditions: 48h, 36°C
Description: Das Inokulum für die Tests wurde durch Verdünnung der Mikroorganismen in wässriger 0,85% NaCI-Lösung hergestellt, die Verdünnung auf die Stufe 0,5 nach McFarland eingestellt und die Konzentration spektrometrisch bei einer Wellenlänge von 580nm überprüft. Die Zellsuspensionen wurden zur Verwendung in den Tests auf 10^4 UFC/ml verdünnt. Die MHK-Tests erfolgten (Vorschrift nach J. N. P. Eloff, Planta Medica, Vol. 64, 1998, p 711-713) in Mikrotiterplatten mit 96 Vertiefungen. Serienverdünnungen der Konzentrationen lagen im Bereich 1,00 - 0,0015 mg/mL. Als Kontrollsubstanzen dienten Chloramphenicol bzw. Nistatin (Merck) in einer Konzentration von 0,062 - 0,005 mg/ml bzw. 0,0125 - 0,001 mg/ml. Das Inokulum (100 µl) wurde in alle Vertiefungen gegeben und die Platten für 48h bei 36°C inkubiert. Die antimikrobielle Aktivität wurde durch Zugabe von 20 µl einer 0,5% igen wässrigen Lösung von TTC (Tetrazoliumchlorid, Merck) pro Vertiefung detektiert. Die minimale Hemmkonzentration (MHK) wird als die niedrigste Konzentration der Verbindung definiert die das sichtbare Wachstum hemmt (durch TTC-Färbung indiziert).

[7] = tested on: Escherichia coli; assay: as above; type: cell-based; conditions: 48h, 36°C
[8] = tested on: S. aureus; assay: as above; type: cell-based; conditions: 48h, 36°C
[9] = tested on: E. hirae; assay: as above; type: cell-based; conditions: 48h, 36°C
[10] = tested on: S. epidermides; assay: as above; type: cell-based; conditions: 48h, 36°C
[11] = tested on: Candida albicans; assay: as above; type: cell-based; conditions: 48h, 36°C
[12] = tested on: Staphylococcus aureus (Stamm ATCC 6538); assay: Mouse ear test (in vivo), antiseptic effect; parameters: key to Keimwachstum (grade): +++: totale Verhinderung des Keimwachstums; ++: Keimwachstum deutlich reduziert aber nicht völlig unterdrückt; conditions: mouse ears infected with S. aureus ATCC 6538; germ count vs infected untreated animal after 18 and 24 h
[13] = tested on: Colo205; assay: Chemosensitivity test (modified MTT test EZ4U); conditions: Homo sapiens, COLO 205, 96 h, read-out: IC50-Werte
Description: (§1) Die Verbindungen wurden in Dimethylsulfoxid (DMSO) als konzentrierte Stammlösungen (100-400fach) gelöst und für Proliferationstests in Zellkulturmedium verdünnt.
(§2) Die Zellen wurden auf Verunreinigung durch Mycoplasmen untersucht. Das Medium wurde mit 10% hitzeinaktiviertem foetalem Kälberserum (Seromed) and 4 mM Glutamin ergänzt. Die Zellen wurden durch Trypsinierung subkultiviert (0.03% Trypsin enthaltend 0.02% EDTA, dreimal pro Woche). Die Trypsinierung wurde durch Verwendung vom komplettem Zellkulturmedium gestoppt. Die Zellzahl wurde unter Verwendung eines TOA Sysmex Microzellzählers (TOA, Tokyo, Japan) bestimmt.
(§3) 10^4 Zellen/well wurden in Mikrotiterplatten mit 96 Vertiefungen (100 µl Medium) verteilt und die zu testenden Verbindungen wurden in einem weiteren Volumen von 100 µl hinzugegeben. Alle Verbindungen wurden entweder in 3 fixen Konzentrationen eingesetzt (für Tabellen 1-3) oder in 10 Stufen verdünnt unter Verwendung von Zweifachverdünnungsschritten zur Bestimmung der IC50-Werte (dreifache Ansätze, in den meisten Fällen vierfache Ansätze). Die Platten wurden, mit der Ausnahme der Tests zur Untersuchung des Zusammenhangs von Applikationsdauer und Zellreaktion, 4 Tage lang unter Zellkulturbedingungen inkubiert und die Zellviabilität wurde unter Verwendung eines modifizierten MTT Tests bestimmt (Formazan-Farbstoffbildung aus Tetrazoliumsalzen wie MTT, XTT, WST-1 und anderen durch das mitochondriale Reduktionsystem Succinattetrazolium Reductase EC 1.3.99.1.; EZ4U nichtradioaktiver Zellproliferations- und Cytotoxizitätstest, Biomedica, Wien, Österreich; Testmanual unter: www.bmgrp.com). Hierbei wurde die mitochondriale Aktivität und dadurch die Zellviabilität/Zellzahl bestimmt. Kurz gesagt wurde das gelieferte Substrat in einer Aktivatorlösung gelöst und 20 µl der Mischung wurden für 2 Stunden pro Vertiefung hinzugegeben (Gesamtvolumen 200 µl). Die optische Dichte wurde bei 450 nm unter Verwendung einer leeren Vertiefung als Referenz in einem Mikroplattenlesegerät (Eurogenetics, Brüssel, Belgien) bestimmt. Für jede Zell-Line wurden Vertiefungen verwendet um das MTT-Signal der Mediumkontrollen ohne Testsubstanzen zu bestimmen. Die Proliferation in den Test-Vertiefungen wurde in Bezug auf diese Kontrollwerte (100%) errechnet. Die Testergebnisse wurden zwischen 0,3 und 1,5 optischer Dichte für langsam bzw. schnellproliferierende Zellen erfasst. Diese Dosis-Wirkungs-Beziehungen wurden verwendet um die IC50 (Konzentration bei der das Wachstum um 50% gehemmt wird) unter Verwendung von PRISM Scientific Software (GraphPad Inc., San Diego, CA) zu berechnen.

[14] = tested on: T47D; assay: Chemosensitivity test (modified MTT test EZ4U); conditions: Homo sapiens, T47D, 96 h, read-out: IC50-Werte
Description: as §1, §2, §3

[15] = tested on: MIAPaCa2; assay: Chemosensitivity test (modified MTT test EZ4U); conditions: Homo sapiens, MIA PaCa-2, 96 h, read-out: IC50-Werte
Description: as §1, §2, §3

[16] = tested on: WI38; assay: Chemosensitivity test (modified MTT test EZ4U); conditions: Homo sapiens, WI-38, 96 h, read-out: IC50-Werte
Description: as §1, §2, §3

[17] = tested on: CRO2B; assay: Chemosensitivity test (modified MTT test EZ4U); conditions: Homo sapiens, 96 h, read-out: IC50-Werte
Description: as §1, §2, §3

[18] = tested on: SW620; assay: Chemosensitivity test (modified MTT test EZ4U); conditions: Homo sapiens, SW-620, 96 h, read-out: IC50-Werte
Description: as §1, §2, §3

[19] = tested on: CaCo-2; assay: Chemosensitivity test (modified MTT test EZ4U); conditions: Homo sapiens, Caco-2, 96 h, read-out: IC50-Werte
Description: as §1, §2, §3

[20] = tested on: HT29; assay: Chemosensitivity test (modified MTT test EZ4U); conditions: Homo sapiens, HT-29, 96 h, read-out: IC50-Werte
Description: as §1
(§4) Mit Ausnahme von SIM, KAL Ewingsarkom (in Wien etabliert) und LAN Neuroblastom (University of Los Angeles) wurden die Zell-Linien von der American Type Culture Collection (ATCC, Rockville, MD) bezogen und zum Erhalt von konfluenten Monolayerkulturen in RPMI-1640 Bikarbonatmedium (Seromed, Berlin, Deutschland) in einem Zellkulturschrank (5% CO2, 37°C) kultiviert. Mit der Ausnahme der murinen NlH3T3 Fibroblasten sind alle verwendeten Zell-Linien humanen Ursprungs. Die Zellen wurden auf Verunreinigung durch Mycoplasmen untersucht. Das Medium wurde mit 10% hitzeinaktiviertem foetalem Kälberserum (Seromed) and 4 mM Glutamin ergänzt. Die Zellen wurden durch Trypsinierung subkultiviert (0.03% Trypsin enthaltend 0.02% EDTA, dreimal pro Woche). Die Trypsinierung wurde durch Verwendung vom komplettem Zellkulturmedium gestoppt. Die Zellzahl wurde unter Verwendung eines TOA Sysmex Microzellzählers (TOA, Tokyo, Japan) bestimmt.
(§5) 10^4 Zellen/well wurden in Mikrotiterplatten mit 96 Vertiefungen (100 µl Medium) verteilt und die zu testenden Verbindungen wurden in einem weiteren Volumen von 100 µl hinzugegeben. […]

[21] = tested on: MDA-MB435; assay: Chemosensitivity test (modified MTT test EZ4U); conditions: Homo sapiens, MDA-MB-435, 96 h, read-out: IC50-Werte
Description: as §1, §4, §5

[22] = tested on: BT20; assay: Chemosensitivity test (modified MTT test EZ4U); conditions: Homo sapiens, BT-20, 96 h, read-out: IC50-Werte
Description: as §1, §4, §5

[23] = tested on: DU 145; assay: Chemosensitivity test (modified MTT test EZ4U); conditions: Homo sapiens, DU-145, 96 h, read-out: IC50-Werte
Description: as §1, §4, §5

[24] = tested on: BxPC3; assay: Chemosensitivity test (modified MTT test EZ4U); conditions: Homo sapiens, BXPC-3, 96 h, read-out: IC50-Werte
Description: as §1, §4, §5

Compound	MHK-Werte [2]	MHK-Werte [3]	MHK-Werte [4]	MHK-Werte [5]	MHK-Werte [6]	MHK-Werte [7]	MHK-Werte [8]	MHK-Werte [9]	MHK-Werte [10]	MHK-Werte [11]	further results
COc1cc(/C=C/C(=O)c2ccccc2O)ccc1O [Q20, 3-(4-Hydroxy-3-methoxyphenyl)-1-(2-hydroxyphenyl)-propenon]	0,5 mg/ml	1,0 mg/ml	>1,0 mg/ml	0,3 mg/ml	>1,0 mg/ml	>1,0 mg/ml	1,0 mg/ml	>1,0 mg/ml	0,5 mg/ml	0,3 mg/ml	Radikalfänger-Effekt [1]: 98%; Keimwachstum (grade) [12]: ++; Keimwachstum reduziert auf [12]: 30%; IC50 [13]: 27 µg/mL (≈ 99.9 µM); IC50 [14]: 25 µg/mL (≈ 92.5 µM); IC50 [15]: 18 µg/mL (≈ 66.6 µM); IC50 [16]: 8.3 µg/mL (≈ 30.7 µM); IC50 [17]: 12 µg/mL (≈ 44.4 µM); IC50 [18]: 17 µg/mL (≈ 62.9 µM); IC50 [19]: 12 µg/mL (≈ 44.4 µM); IC50 [20]: 16 µg/mL (≈ 59.2 µM); IC50 [21]: 24 µg/mL (≈ 88.8 µM); IC50 [22]: 33 µg/mL (≈ 122 µM); IC50 [23]: 16 µg/mL (≈ 59.2 µM); IC50 [24]: 33 µg/mL (≈ 122 µM)
COc1cc(/C=C/C(=O)c2ccccc2O)ccc1OCC=C(C)C [Q21, 1-(2-Hydroxyphenyl)-3-[3-methoxy-4-(3-methylbut-2-enyloxy)phenyl]propenon]	>1,0 mg/ml	>1,0 mg/ml	>1,0 mg/ml	0,8 mg/ml	0,9 mg/ml	>1,0 mg/ml	>1,0 mg/ml	>1,0 mg/ml	>1,0 mg/ml	0,6 mg/ml	–
